The values below are quoted from earlier work in patent US20240424053A1, “METHODS AND COMPOSITIONS FOR PROVIDING MYOCARDIAL PROTECTION AND TREATING MYOCARDIAL STRESS AND FIBROSIS” (Tufts Medical Center, Inc., priority 2021, published 2024).

In this series the target is T1, Xa (Homo sapiens, UniProt P00742).
T1 construct: host or cells: HF patients
To be noted: in vivo; cited from earlier work.

T1 sequence (P00742 235-488 limits assumed): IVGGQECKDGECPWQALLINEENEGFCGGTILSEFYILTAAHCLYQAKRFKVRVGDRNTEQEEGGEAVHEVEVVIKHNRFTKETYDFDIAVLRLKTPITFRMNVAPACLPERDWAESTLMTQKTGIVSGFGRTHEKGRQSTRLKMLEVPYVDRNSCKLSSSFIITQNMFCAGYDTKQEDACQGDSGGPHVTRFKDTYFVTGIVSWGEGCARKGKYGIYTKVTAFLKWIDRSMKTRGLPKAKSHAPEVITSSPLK
T1 sequence (P00742 41-179 partner limits assumed): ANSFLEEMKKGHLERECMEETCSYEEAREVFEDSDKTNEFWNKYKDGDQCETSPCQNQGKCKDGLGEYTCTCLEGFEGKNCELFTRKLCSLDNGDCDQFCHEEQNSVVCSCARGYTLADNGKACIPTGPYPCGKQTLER

As to `O=C(NC[C@H]1CN(c2ccc(N3CCOCC3=O)cc2)C(=O)O1)c1ccc(Cl)s1` [rivaroxaban], the “clinical benefit in HF patients” value is given as “no clear benefit”.
